Data as given in US4231928A, “Antibacterial agents” (priority 1979, dated 1980).
Where two headings read alike, the source gives them in different places.

Assays:
Type in all cases: cell-based
P. morganii = test: Serial twofold agar dilution (Mueller-Hinton agar), P. morganii
Protocol: (§1) The Minimum Inhibitory Concentrations (MIC) for sodium 6-[D-(-)-α-phenyl-α-(7-hydroxy-4-oxo-4H-pyrimido[1,2-b]pyridazin-3-ylcarboxamido)acetamido]penicillanate (BB-P598) and sulbenicillin were determined by the serial twofold agar dilution method using Steers' apparatus on Mueller-Hinton agar plates against 31 test organisms for the primary screening (Table 1) and also against 61 strains of Pseudomonas aeruginosa for the secondary evaluation (Table 2).
(§2) Minimum Inhibitory Concentrations (MIC) for sodium 6-[D-(-)-α-phenyl-α-(7-hydroxy-4-oxo-4H-pyrimido[1,2-b]pyridazin-3-ylcarboxamido)acetamido]pencillanate (BB-P598), sodium 6-[D-(-)-α-(4-hydroxyphenyl)-α-(7-hydroxy-4-oxo-4H-pyrimido[1,2-b]pyridazin-3-ylcarboxamido)acetamido]-penicillanate (BB-P642) and carbenicillin were determined by the serial twofold agar dilution method using Steers' apparatus on Mueller-Hinton agar plates against 31 tests organisms (Table 8) and also against 61 strains of Pseudomonas aeruginosa (Table 9). In terms of mean % relative activity compared with carbenicillin, compounds BB-B598 and BB-P642 were 856% and 1319% as active as carbenicillin against the 61 Pseudomonas strains of Table 9.

S. marcescens = test: Serial twofold agar dilution (Mueller-Hinton agar), S. marcescens; settings: Serratia marcescens
Protocol: as §1, §2

S. aureus = test: Serial twofold agar dilution (Mueller-Hinton agar), S. aureus; settings: Staphylococcus aureus
Protocol: as §1, §2

S. enteritidis = test: Serial twofold agar dilution (Mueller-Hinton agar), S. enteritidis
Protocol: as §1, §2

E. coli = test: Serial twofold agar dilution (Mueller-Hinton agar), E. coli; settings: Escherichia coli
Protocol: as §1, §2

Pseudomonas aeruginosa = test: Serial twofold agar dilution (Mueller-Hinton agar), P. aeruginosa; settings: for MIC: Pseudomonas aeruginosa
Protocol: as §1, §2

CC1(C)S[C@@H]2[C@H](NC(=O)[C@H](NC(=O)c3cnc4ccc(O)nn4c3=O)c3ccccc3)C(=O)N2[C@H]1C(=O)O [BB-P598, sodium 6-[D-(-)-α-phenyl-α-(7-hydroxy-4-oxo-4H-pyrimido[1,2-b]pyridazin-3-ylcarboxamido)acetamido]penicillanate]
0.4 µg/mL: MIC (Pseudomonas aeruginosa; Pa-16 #130 A20718, Mueller-Hinton agar, Table 9, read-out: MIC)
6.3 µg/mL: MIC (S. aureus; S. aureus BX-1633 A9606, Table 1, read-out: MIC) | MIC (S. aureus; S. aureus BX-1633 A20240, Table 1, read-out: MIC) | MIC (S. enteritidis; S. enteritidis A9531, Table 1) | MIC (S. enteritidis; Salmonella enterica, S. enteritidis A9531, Table 8, read-out: MIC) | MIC (E. coli; E. coli A9844, Table 8, read-out: MIC) | MIC (Pseudomonas aeruginosa; ATCC19660, Pa-14 ATCC 19660 A20325, Mueller-Hinton agar, Table 9, read-out: MIC) | MIC (Pseudomonas aeruginosa; GN4925, Pa-45 GN4925, Mueller-Hinton agar, Table 2, read-out: MIC) | MIC (Pseudomonas aeruginosa; GN4925, Pa-45 GN 4925, Mueller-Hinton agar, Table 9, read-out: MIC) | MIC (Pseudomonas aeruginosa; P. aeruginosa A20717, Mueller-Hinton agar, Table 1, read-out: MIC) | MIC (Pseudomonas aeruginosa; P. aeruginosa A20717, Mueller-Hinton agar, Table 8, read-out: MIC) | MIC (Pseudomonas aeruginosa; Pa-1 D15, Mueller-Hinton agar, Table 2, read-out: MIC) | MIC (Pseudomonas aeruginosa; Pa-1 D15, Mueller-Hinton agar, Table 9, read-out: MIC) | MIC (Pseudomonas aeruginosa; Pa-4 H9 D113 A21295, Mueller-Hinton agar, Table 2, read-out: MIC) | MIC (Pseudomonas aeruginosa; Pa-7 A9843, Mueller-Hinton agar, Table 2, read-out: MIC) | MIC (Pseudomonas aeruginosa; Pa-11 A20616, Mueller-Hinton agar, Table 9, read-out: MIC) | MIC (Pseudomonas aeruginosa; Pa-12 A20653, Mueller-Hinton agar, Table 2, read-out: MIC) | MIC (Pseudomonas aeruginosa; Pa-12 A20653, Mueller-Hinton agar, Table 9, read-out: MIC) | MIC (Pseudomonas aeruginosa; Pa-15 A20717, Mueller-Hinton agar, Table 2, read-out: MIC) | MIC (Pseudomonas aeruginosa; Pa-20 A20325, Mueller-Hinton agar, Table 2, read-out: MIC) | MIC (Pseudomonas aeruginosa; Pa-23 A20741, Mueller-Hinton agar, Table 2, read-out: MIC)
3.5 µg/mL: MIC (Pseudomonas aeruginosa; 61 strains of P. aeruginosa, Table 9, read-out: Geometric mean of MIC)
25 µg/mL: MIC (S. aureus; S. aureus A20239, Table 8, read-out: MIC) | MIC (S. aureus; S. aureus Smith A20239, Table 1) | MIC (Pseudomonas aeruginosa; Pa-6 No. 5 A15194, Mueller-Hinton agar, Table 2, read-out: MIC) | MIC (Pseudomonas aeruginosa; Pa-24 A20896, Mueller-Hinton agar, Table 2, read-out: MIC)
100 µg/mL: MIC (S. marcescens; S. marcescens A20019, Table 1) | MIC (S. aureus; S. aureus BX-1633 A15097, Table 1, read-out: MIC) | MIC (E. coli; E. coli Juhl A20732, Table 1, read-out: MIC) | MIC (Pseudomonas aeruginosa; Pa-10 A21479, Mueller-Hinton agar, Table 9, read-out: MIC) | MIC (Pseudomonas aeruginosa; Pa-24 A20896, Mueller-Hinton agar, Table 9, read-out: MIC)
1.6 µg/mL: MIC (S. aureus; S. aureus Smith A9537, Table 1, read-out: MIC) | MIC (S. aureus; S. aureus Smith A9537, Table 8, read-out: MIC) | MIC (E. coli; E. coli Juhl A20520, Table 1, read-out: MIC) | MIC (Pseudomonas aeruginosa; GN315, Pa-27 GN315 A21294, Mueller-Hinton agar, Table 9, read-out: MIC) | MIC (Pseudomonas aeruginosa; P. aeruginosa A9930, Mueller-Hinton agar, Table 1, read-out: MIC) | MIC (Pseudomonas aeruginosa; P. aeruginosa A9930, Mueller-Hinton agar, Table 8, read-out: MIC) | MIC (Pseudomonas aeruginosa; P. aeruginosa A15150, Mueller-Hinton agar, Table 8, read-out: MIC) | MIC (Pseudomonas aeruginosa; P. aeruginosa A20229, Mueller-Hinton agar, Table 1, read-out: MIC) | MIC (Pseudomonas aeruginosa; Pa-3 1449VA A9930, Mueller-Hinton agar, Table 2, read-out: MIC) | MIC (Pseudomonas aeruginosa; Pa-5 M4865, K.C A15150, Mueller-Hinton agar, Table 9, read-out: MIC) | MIC (Pseudomonas aeruginosa; Pa-17 H6, D114, Mueller-Hinton agar, Table 9, read-out: MIC) | MIC (Pseudomonas aeruginosa; Pa-18 H8, D121, Mueller-Hinton agar, Table 9, read-out: MIC) | MIC (Pseudomonas aeruginosa; Pa-19 A20229, Mueller-Hinton agar, Table 2, read-out: MIC)
756%: Mean % relative activity (sulbenicillin = 100%) (Pseudomonas aeruginosa; 61 strains of P. aeruginosa, Table 2)
3.1 µg/mL: MIC (E. coli; E. coli A20520, Table 8, read-out: MIC) | MIC (E. coli; E. coli Juhl A9844, Table 1, read-out: MIC) | MIC (E. coli; E. coli NIHJ, Table 8, read-out: MIC) | MIC (Pseudomonas aeruginosa; GN315, Pa-27 GN315 A21294, Mueller-Hinton agar, Table 2, read-out: MIC) | MIC (Pseudomonas aeruginosa; P. aeruginosa A9843, Mueller-Hinton agar, Table 1, read-out: MIC) | MIC (Pseudomonas aeruginosa; P. aeruginosa A9843, Mueller-Hinton agar, Table 8, read-out: MIC) | MIC (Pseudomonas aeruginosa; Pa-2 V.A A9923, Mueller-Hinton agar, Table 9, read-out: MIC) | MIC (Pseudomonas aeruginosa; Pa-2 VA A9923, Mueller-Hinton agar, Table 2, read-out: MIC) | MIC (Pseudomonas aeruginosa; Pa-3 1449 V.A A9930, Mueller-Hinton agar, Table 9, read-out: MIC) | MIC (Pseudomonas aeruginosa; Pa-4 H9, D113 A21295, Mueller-Hinton agar, Table 9, read-out: MIC) | MIC (Pseudomonas aeruginosa; Pa-5 M4865KC A15150, Mueller-Hinton agar, Table 2, read-out: MIC) | MIC (Pseudomonas aeruginosa; Pa-11 A20616, Mueller-Hinton agar, Table 2, read-out: MIC) | MIC (Pseudomonas aeruginosa; Pa-14 A20325, Mueller-Hinton agar, Table 2, read-out: MIC) | MIC (Pseudomonas aeruginosa; Pa-17 H6 D114, Mueller-Hinton agar, Table 2, read-out: MIC) | MIC (Pseudomonas aeruginosa; Pa-18 H8 D121, Mueller-Hinton agar, Table 2, read-out: MIC) | MIC (Pseudomonas aeruginosa; Pa-20 A20325, Mueller-Hinton agar, Table 9, read-out: MIC) | MIC (Pseudomonas aeruginosa; Pa-21 A20601, Mueller-Hinton agar, Table 2, read-out: MIC) | MIC (Pseudomonas aeruginosa; Pa-21 A20601, Mueller-Hinton agar, Table 9, read-out: MIC) | MIC (Pseudomonas aeruginosa; Pa-23 A20741, Mueller-Hinton agar, Table 9, read-out: MIC)
856%: Mean % relative activity compared with carbenicillin (Pseudomonas aeruginosa; 61 strains of P. aeruginosa, Table 9)
> 100 µg/mL: MIC (P. morganii; Morganella morganii, P. morganii A9553, Table 8, read-out: MIC) | MIC (P. morganii; P. morganii A9553, Table 1) | MIC (S. aureus; S. aureus A15097, Table 8, read-out: MIC) | MIC (S. aureus; S. aureus A20701, Table 8, read-out: MIC) | MIC (S. aureus; S. aureus BX-1633 A20701, Table 1, read-out: MIC) | MIC (E. coli; E. coli A20366, Table 8, read-out: MIC) | MIC (E. coli; E. coli A20898, Table 8, read-out: MIC) | MIC (E. coli; E. coli Juhl A20366, Table 1, read-out: MIC) | MIC (E. coli; E. coli Juhl A20898, Table 1, read-out: MIC) | MIC (Pseudomonas aeruginosa; Pa-10 A20479, Mueller-Hinton agar, Table 2, read-out: MIC)
50 µg/mL: MIC (S. marcescens; S. marcescens A20019, Table 8) | MIC (S. aureus; S. aureus BX-1633 A9606, Table 8, read-out: MIC) | MIC (E. coli; E. coli A20732, Table 8, read-out: MIC)
12.5 µg/mL: MIC (S. aureus; S. aureus A20240, Table 8, read-out: MIC) | MIC (E. coli; E. coli A9635, Table 8, read-out: MIC) | MIC (E. coli; E. coli Juhl A9435, Table 1) | MIC (E. coli; E. coli Juhl A15119, Table 1, read-out: MIC) | MIC (E. coli; E. coli Juhl A15119, Table 8, read-out: MIC) | MIC (Pseudomonas aeruginosa; Pa-6 No. 5 Levitan A15194, Mueller-Hinton agar, Table 9, read-out: MIC) | MIC (Pseudomonas aeruginosa; Pa-15 A20717, Mueller-Hinton agar, Table 9, read-out: MIC)
0.8 µg/mL: MIC (E. coli; E. coli A20664, Table 8, read-out: MIC) | MIC (E. coli; E. coli Juhl A20664, Table 1, read-out: MIC) | MIC (E. coli; E. coli NIHJ, Table 1, read-out: MIC) | MIC (Pseudomonas aeruginosa; P. aeruginosa A15150, Mueller-Hinton agar, Table 1, read-out: MIC) | MIC (Pseudomonas aeruginosa; Pa-16 #130 A20718, Mueller-Hinton agar, Table 2, read-out: MIC) | MIC (Pseudomonas aeruginosa; Pa-19 A20229, Mueller-Hinton agar, Table 9, read-out: MIC)
4.2 µg/mL: MIC (Pseudomonas aeruginosa; 61 strains of P. aeruginosa, Table 2, read-out: Geometric mean of MIC)
